Measurements taken from PubChem BioAssay (NCI).
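Exposure lasted 48 hours, with cells grown in 96-well plates and compounds tested at five concentrations. Abbreviation: GI50, concentration required for 50% inhibition of growth. TGI is the concentration that stops growth completely.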

Key:
Assay in all cases: NCI tumour cell line growth inhibition, 48 h; in the data active means GI50 below about 0.43 µM; inactive means the rest
786-0 renal = system: 786-0 renal
A498 renal = system: A498 renal
A549 NSCLC = system: A549 NSCLC
ACHN renal = system: ACHN renal
BT-549 breast = system: BT-549 breast
CAKI-1 renal = system: CAKI-1 renal
CCRF-CEM leukemia = system: CCRF-CEM leukemia
COLO 205 colon = system: COLO 205 colon
DU-145 prostate = system: DU-145 prostate
EKVX NSCLC = system: EKVX NSCLC
HCC-2998 colon = system: HCC-2998 colon
HCT-116 colon = system: HCT-116 colon
HCT-15 colon = system: HCT-15 colon
HL-60(TB) leukemia = system: HL-60(TB) leukemia
HOP-62 NSCLC = system: HOP-62 NSCLC
HOP-92 NSCLC = system: HOP-92 NSCLC
HS 578T breast = system: HS 578T breast
HT29 colon = system: HT29 colon
IGROV1 ovarian = system: IGROV1 ovarian
K-562 leukemia = system: K-562 leukemia
KM12 colon = system: KM12 colon
LOX IMVI melanoma = system: LOX IMVI melanoma
M14 melanoma = system: M14 melanoma
MALME-3M melanoma = system: MALME-3M melanoma
MCF7 breast = system: MCF7 breast
MDA-MB-231 breast = system: MDA-MB-231 breast
MDA-MB-435 = system: MDA-MB-435
NCI-H226 lung = system: NCI-H226 lung
NCI-H23 lung = system: NCI-H23 lung
NCI-H460 lung = system: NCI-H460 lung
NCI-H522 lung = system: NCI-H522 lung
NCI/ADR-RES ovarian = system: NCI/ADR-RES ovarian
OVCAR-3 ovarian = system: OVCAR-3 ovarian
OVCAR-5 ovarian = system: OVCAR-5 ovarian
OVCAR-8 ovarian = system: OVCAR-8 ovarian
PC-3 prostate = system: PC-3 prostate
RPMI-8226 leukemia = system: RPMI-8226 leukemia
RXF 393 renal = system: RXF 393 renal
SF-268 CNS = system: SF-268 CNS
SF-295 CNS = system: SF-295 CNS
SF-539 CNS = system: SF-539 CNS
SK-MEL-2 melanoma = system: SK-MEL-2 melanoma
SK-MEL-28 melanoma = system: SK-MEL-28 melanoma
SK-MEL-5 melanoma = system: SK-MEL-5 melanoma
SK-OV-3 ovarian = system: SK-OV-3 ovarian
SN12C renal = system: SN12C renal
SNB-19 CNS = system: SNB-19 CNS
SW-620 colon = system: SW-620 colon
T-47D breast = system: T-47D breast
TK-10 renal = system: TK-10 renal
U251 CNS = system: U251 CNS
UACC-257 melanoma = system: UACC-257 melanoma
UACC-62 melanoma = system: UACC-62 melanoma
UO-31 renal = system: UO-31 renal

CCOC(=O)c1cc2c(c3ccsc13)C1(C)CCC3c4ccc(OC)cc4CCC3C1C2 (stereo not drawn)
> 100 µM: TGI (786-0 renal) | TGI (A498 renal) | TGI (A549 NSCLC) | TGI (ACHN renal) | TGI (BT-549 breast) | TGI (CAKI-1 renal) | TGI (CCRF-CEM leukemia) | TGI (COLO 205 colon) | TGI (DU-145 prostate) | TGI (EKVX NSCLC) | TGI (HCC-2998 colon) | TGI (HCT-116 colon) | TGI (HCT-15 colon) | TGI (HL-60(TB) leukemia) | TGI (HOP-62 NSCLC) | TGI (HOP-92 NSCLC) | TGI (HS 578T breast) | TGI (HT29 colon) | TGI (IGROV1 ovarian) | TGI (K-562 leukemia) | TGI (KM12 colon) | TGI (LOX IMVI melanoma) | TGI (M14 melanoma) | TGI (MALME-3M melanoma) | TGI (MCF7 breast) | TGI (MDA-MB-231 breast) | TGI (MDA-MB-435) | TGI (NCI-H226 lung) | TGI (NCI-H23 lung) | TGI (NCI-H460 lung) | TGI (NCI-H522 lung) | TGI (NCI/ADR-RES ovarian) | TGI (OVCAR-3 ovarian) | TGI (OVCAR-5 ovarian) | TGI (OVCAR-8 ovarian) | TGI (PC-3 prostate) | TGI (RPMI-8226 leukemia) | TGI (RXF 393 renal) | TGI (SF-268 CNS) | TGI (SF-295 CNS) | TGI (SF-539 CNS) | TGI (SK-MEL-2 melanoma) | TGI (SK-MEL-28 melanoma) | TGI (SK-MEL-5 melanoma) | TGI (SK-OV-3 ovarian) | TGI (SN12C renal) | TGI (SNB-19 CNS) | TGI (SW-620 colon) | TGI (T-47D breast) | TGI (TK-10 renal) | TGI (U251 CNS) | TGI (UACC-257 melanoma) | TGI (UACC-62 melanoma) | TGI (UO-31 renal)
inactive: GI50 (786-0 renal) > 100 µM | GI50 (A498 renal) > 100 µM | GI50 (A549 NSCLC) > 100 µM | GI50 (ACHN renal) > 100 µM | GI50 (BT-549 breast) > 100 µM | GI50 (CAKI-1 renal) > 100 µM | GI50 (CCRF-CEM leukemia) > 100 µM | GI50 (COLO 205 colon) > 100 µM | GI50 (DU-145 prostate) > 100 µM | GI50 (EKVX NSCLC) > 100 µM | GI50 (HCC-2998 colon) > 100 µM | GI50 (HCT-116 colon) > 100 µM | GI50 (HCT-15 colon) > 100 µM | GI50 (HL-60(TB) leukemia) > 100 µM | GI50 (HOP-62 NSCLC) > 100 µM | GI50 (HOP-92 NSCLC) > 100 µM | GI50 (HS 578T breast) > 100 µM | GI50 (HT29 colon) 60.3 µM | GI50 (IGROV1 ovarian) > 100 µM | GI50 (K-562 leukemia) > 100 µM | GI50 (KM12 colon) > 100 µM | GI50 (LOX IMVI melanoma) > 100 µM | GI50 (M14 melanoma) > 100 µM | GI50 (MALME-3M melanoma) > 100 µM | GI50 (MCF7 breast) > 100 µM | GI50 (MDA-MB-231 breast) > 100 µM | GI50 (MDA-MB-435) > 100 µM | GI50 (NCI-H226 lung) > 100 µM | GI50 (NCI-H23 lung) > 100 µM | GI50 (NCI-H460 lung) > 100 µM | GI50 (NCI-H522 lung) > 100 µM | GI50 (NCI/ADR-RES ovarian) > 100 µM | GI50 (OVCAR-3 ovarian) > 100 µM | GI50 (OVCAR-5 ovarian) > 100 µM | GI50 (OVCAR-8 ovarian) > 100 µM | GI50 (PC-3 prostate) > 100 µM | GI50 (RPMI-8226 leukemia) > 100 µM | GI50 (RXF 393 renal) > 100 µM | GI50 (SF-268 CNS) > 100 µM | GI50 (SF-295 CNS) > 100 µM | GI50 (SF-539 CNS) > 100 µM | GI50 (SK-MEL-2 melanoma) > 100 µM | GI50 (SK-MEL-28 melanoma) > 100 µM | GI50 (SK-MEL-5 melanoma) > 100 µM | GI50 (SK-OV-3 ovarian) 36 µM | GI50 (SN12C renal) > 100 µM | GI50 (SNB-19 CNS) > 100 µM | GI50 (SW-620 colon) > 100 µM | GI50 (T-47D breast) > 100 µM | GI50 (TK-10 renal) > 100 µM | GI50 (U251 CNS) > 100 µM | GI50 (UACC-257 melanoma) > 100 µM | GI50 (UACC-62 melanoma) > 100 µM | GI50 (UO-31 renal) > 100 µM
